# Laboratory results published in patent US20010039287A1, “AROMATIC SULFONE HYDROXAMIC ACID METALLOPROTEASE INHIBITOR” (priority 1997, published 2001).
# Where a name gives a salt, the structure may show the parent alone. Read-outs that look alike come from different tables or passages of the source.
# Assays:
# [1] = biological target: recombinant human MMP-13 (Homo sapiens, UniProt P45452); experiment: biochemical
# [2] = biological target: T1, recombinant human MMP-1 (Homo sapiens, UniProt P03956); experiment: biochemical
# T1 construct: made in house; host or cells: transfected HT-1080 cells (provided by Dr. Harold Welgus, Washington University)
# T1 sequence (P03956 100-469): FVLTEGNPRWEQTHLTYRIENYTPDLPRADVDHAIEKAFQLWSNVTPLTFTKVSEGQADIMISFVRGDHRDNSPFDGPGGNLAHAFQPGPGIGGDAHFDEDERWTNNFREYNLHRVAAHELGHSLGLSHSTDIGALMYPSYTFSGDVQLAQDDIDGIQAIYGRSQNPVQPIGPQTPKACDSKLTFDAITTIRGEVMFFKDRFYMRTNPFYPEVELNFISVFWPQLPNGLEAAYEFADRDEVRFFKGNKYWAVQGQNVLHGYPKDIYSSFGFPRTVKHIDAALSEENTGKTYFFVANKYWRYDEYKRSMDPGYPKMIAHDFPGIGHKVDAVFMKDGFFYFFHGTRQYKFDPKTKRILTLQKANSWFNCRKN
# [3] = biological target: T2, recombinant human MMP-2 (Homo sapiens, UniProt P08253); experiment: biochemical
# T2 sequence (P08253 110-660): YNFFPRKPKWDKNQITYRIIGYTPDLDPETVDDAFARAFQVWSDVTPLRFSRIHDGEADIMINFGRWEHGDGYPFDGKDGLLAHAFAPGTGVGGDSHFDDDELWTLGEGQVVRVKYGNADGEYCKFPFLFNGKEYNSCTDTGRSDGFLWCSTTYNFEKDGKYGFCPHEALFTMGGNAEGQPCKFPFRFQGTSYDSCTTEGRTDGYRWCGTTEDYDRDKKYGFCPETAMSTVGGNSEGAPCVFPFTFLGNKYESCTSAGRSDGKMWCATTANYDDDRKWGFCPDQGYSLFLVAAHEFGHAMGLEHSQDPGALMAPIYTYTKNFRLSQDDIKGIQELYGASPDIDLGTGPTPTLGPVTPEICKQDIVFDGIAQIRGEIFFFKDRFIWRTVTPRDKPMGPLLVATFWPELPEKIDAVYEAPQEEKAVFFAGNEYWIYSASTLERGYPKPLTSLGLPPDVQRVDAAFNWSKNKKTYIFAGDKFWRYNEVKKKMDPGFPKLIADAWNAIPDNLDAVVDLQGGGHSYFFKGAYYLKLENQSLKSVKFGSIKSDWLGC
# [4] = biological target: recombinant human MMP-9 (Homo sapiens, UniProt P14780); experiment: biochemical; conditions: read-out: MMP-9 IC50
# [5] = system: TNFα; experiment: Tumor necrosis factor assay: TNFα ELISA on PMA-stimulated U-937 cell supernatant; conditions: Homo sapiens, U-937, read-out: TNFα Release IC50 in micromolar
# [6] = design: AUC (0-∞): unit not given beside the values; conditions: for t½ Hour: Rat Intravenous 20 mpk
# [7] = Inhibition Table A, read-out: MMP-13 IC50
# [8] = Inhibition Table A, read-out: MMP-1 IC50
# [9] = Inhibition Table A, read-out: MMP-2 IC50
# [10] = Inhibition Table B, read-out: MMP-13 IC50
# [11] = Inhibition Table B, read-out: MMP-2 IC50
# [12] = Inhibition Table B, read-out: MMP-1 IC50
# Chain of recombinant human MMP-9 (P14780 107-707 limits assumed): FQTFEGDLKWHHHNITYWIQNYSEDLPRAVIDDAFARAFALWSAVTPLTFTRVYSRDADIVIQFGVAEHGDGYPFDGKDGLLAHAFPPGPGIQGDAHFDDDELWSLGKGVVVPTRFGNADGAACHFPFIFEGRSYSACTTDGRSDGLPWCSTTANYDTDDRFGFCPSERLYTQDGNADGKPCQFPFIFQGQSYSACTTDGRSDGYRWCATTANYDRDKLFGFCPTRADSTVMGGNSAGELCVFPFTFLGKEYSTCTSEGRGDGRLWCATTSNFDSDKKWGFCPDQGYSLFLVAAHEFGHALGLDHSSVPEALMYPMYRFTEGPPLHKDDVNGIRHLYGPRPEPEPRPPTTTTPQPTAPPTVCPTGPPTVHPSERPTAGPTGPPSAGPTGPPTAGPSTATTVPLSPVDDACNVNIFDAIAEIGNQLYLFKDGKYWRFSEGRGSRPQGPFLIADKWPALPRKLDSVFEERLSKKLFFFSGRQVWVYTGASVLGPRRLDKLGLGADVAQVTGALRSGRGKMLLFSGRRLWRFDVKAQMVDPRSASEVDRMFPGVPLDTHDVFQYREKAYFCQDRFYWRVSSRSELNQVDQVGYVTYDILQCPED
Compound,IC50 [5],"IC50 [1, 10]","IC50 [3, 11]",IC50 ([4]; Inhibition Table B),t½ Hour [6],"IC50 [2, 12]",further results
O=C(NO)C1(S(=O)(=O)c2ccc(Oc3ccccc3)cc2)CCNCC1 [Example 4],> 50 µM,–,–,–,–,–,"IC50 [1, 7]: 0.35 nM; IC50 [2, 8]: 1.09 µM; IC50 [3, 9]: 0.23 nM; IC50 ([4]; Inhibition Table A): 5 nM"
C#CCN1CCC(C(=O)NO)(S(=O)(=O)c2ccc(Oc3ccccc3)cc2)CC1 [Example 6],> 50 µM,–,–,–,–,–,"IC50 [1, 7]: 0.25 nM; IC50 [2, 8]: 0.327 µM; IC50 [3, 9]: 0.15 nM"
C#CCN1CCC(C(=O)NO)(S(=O)(=O)c2ccc(Sc3ccccc3)cc2)CC1 [Example 9],> 50 µM,–,–,–,–,–,"IC50 [2, 8]: 9 µM; IC50 [3, 9]: 0.2 nM"
C#CCN1CCC(C(=O)NO)(S(=O)(=O)c2ccc(Oc3ccc4c(c3)OCO4)cc2)CC1 [Example 10],> 50 µM,–,–,–,–,–,"IC50 [1, 7]: 0.4 nM; IC50 [2, 8]: 1.6 µM"
C#CCN1CCC(C(=O)NO)(S(=O)(=O)c2ccc(SC3CCCCC3)cc2)CC1 [Example 13],> 50 µM,–,–,–,–,–,"IC50 [1, 7]: 0.6 nM; IC50 [3, 9]: 0.4 nM"
O=C(NO)C1(S(=O)(=O)c2ccc(Sc3ccc(F)cc3)cc2)CCN(C2CC2)CC1 [Example 27],> 80 µM,–,–,–,–,–,"IC50 [1, 7]: 0.45 nM; IC50 [2, 8]: > 10 µM; IC50 [3, 9]: 0.4 nM; IC50 ([4]; Inhibition Table A): 4 nM"
"CN1CCC(C(=O)NO)(S(=O)(=O)c2ccc(Sc3ccccc3)cc2)CC1.Cl [Example 33, N-hydroxy-1-methyl-4-[[4-(phenylthio)phenyl]sulfonyl]-4-piperidinecarboxamide, Monohydrochloride]",–,0.8 nM,0.5 nM,9.4 nM,1.91 h,–,IC50 [2]: > 10 µM
"COCCN1CCC(C(=O)NO)(S(=O)(=O)c2ccc(Sc3ccccc3)cc2)CC1 [Example 35, N—hydroxy-1-(2-methoxyethyl)-4-[[4-(phenylthio)phenyl]-sulfonyl]-4-piperidinecarboxamide, Monohydrochloride]",> 80 µM,0.5 nM,0.3 nM,3 nM,–,> 10 µM,–
"CC(=O)N1CCC(C(=O)NO)(S(=O)(=O)c2ccc(Sc3ccccc3)cc2)CC1.Cl [Example 36, 1-acetyl-N-hydroxy-4-[[4-(phenylthio)phenyl]sulfonyl]-4-piperidinecarboxamide, Monohydrochloride]",–,0.6 nM,0.4 nM,8 nM,0.65 h,7.3 µM,–
"Cl.O=C(NO)C1(S(=O)(=O)c2ccc(Oc3ccc(-n4cncn4)cc3)cc2)CCS(=O)(=O)CC1 [Example 53, Tetrahydro-N-hydroxy-4-[[4-[4-(1H-1,2,4-triazol-1-yl)phenoxy]-phenyl]-sulfonyl]-2H-thiopyran-4-carboxamide 1,1-dioxide, Monohydrochloride]",–,1.5 nM,0.3 nM,92 nM,0.97 h,> 10 µM,–
O=C(NO)C1(S(=O)(=O)c2ccc(Oc3ccc(OC(F)(F)F)cc3)cc2)CCOCC1 [Example 69],> 80 µM,–,–,–,–,–,"AUC (0-∞) ([6]; rat, in vivo): 63.78; Blood Level @ 3 min ([6]; rat, in vivo): 44.00 µg/mL; Blood Level @ 3 min ([6]; rat, in vivo, iv, 20 mg/kg): 44.00 µg/mL"
"O=C(NO)C1(S(=O)(=O)c2ccc(Sc3ccc(OC(F)(F)F)cc3)cc2)CCOCC1 [Example 73, tetrahydro-N-hydroxy-4-[[4-[4-(trifluoromethoxy)phenylthio]-phenyl]-sulfonyl]-2H-pyran-4-carboxamide]",–,–,–,0.2 nM,–,1.14 µM,"IC50 [1]: < 0.1 nM; IC50 ([3]; MMP-2 IC50 (nM)): < 0.1 nM; Blood Level @ 6 hr ([6]; rat, in vivo, po, 20 mg/kg): 0.372 µg/mL"
"Cl.O=C(NO)C1(S(=O)(=O)c2ccc(Oc3ccc(Cl)cc3)cc2)CCNCC1 [Example 93, 4-[[4-(4-chlorophenoxy)-phenyl]sulfonyl]-N-hydroxy-4-piperidinecarboxamide, Monohydrochloride]",–,0.7 nM,0.4 nM,3.5 nM,1.81 h,8 µM,–
"O=C(NO)C1(S(=O)(=O)c2ccc(Sc3ccccc3)cc2)CCOCC1 [Example 95, Tetrahydro-N-hydroxy-4-[[4-(phenylthio)phenyl]sulfonyl]-2H-pyran-4-carboxamide]",> 50 µM,0.5 nM,1 nM,3.6 nM,1.06 h,> 10 µM,–
"O=C(NO)C1(S(=O)(=O)c2ccc(Sc3ccc(F)cc3)cc2)CCOCC1 [Example 103, 4-[[4-[(4-fluorophenyl)-thio]phenyl]sulfonyl]tetrahydro-N-hydroxy-2H-pyran-4-carboxamide]",–,0.7 nM,0.8 nM,10 nM,1.10 h,> 10 µM,–
"Cl.O=C(NO)C1(S(=O)(=O)c2ccc(Sc3ccncc3)cc2)CCOCC1 [Example 104, Tetrahydro-N-hydroxy-4-[[4-(4-pyridinylthio)phenyl]sulfonyl]-2H-pyran-4-carboxamide, Monohydrochloride]",–,0.65 nM,1.5 nM,42.8 nM,0.66 h,> 10 µM,–
O=C(NO)C1(S(=O)(=O)c2ccc(Oc3ccccc3)cc2)CCSCC1 [Example 109],–,0.3 nM,0.1 nM,0.7 nM,1.12 h,0.5 µM,–
"O=C(O)CNc1ccc(Oc2ccc(S(=O)(=O)C3(C(=O)NO)CCSCC3)cc2)cc1 [Example 117, tetrahydro-N-hydroxy-4-[[4-[4-hydroxyphenyl Glycine)]phenyl] Sulfonyl 2H-thiopyran-4-carboxamide]",–,4.8 nM,0.6 nM,45.4 nM,0.78 h,3.7 µM,–
"NCC(=O)Nc1ccc(Sc2ccc(S(=O)(=O)C3(C(=O)NO)CCSCC3)cc2)cc1 [Example 118, tetrahydro-N-hydroxy-4-[[4-[4-hydroxyphenylglycine))phenyl] Sulfonyl 2H-thiopyran-4-carboxamide]",–,0.8 nM,0.3 nM,50 nM,1.85 h,2.85 µM,–
CC(C)c1ccc(Oc2ccc(S(=O)(=O)C3(C(=O)NO)CCOCC3)cc2)cc1 [Example 125],–,0.5 nM,0.4 nM,7 nM,0.73 h,> 10 µM,–
O=C(NO)C1(S(=O)(=O)c2ccc(Oc3ccc(C(F)(F)F)cc3)cc2)CCOCC1 [Example 379],80 µM,–,–,–,1.74 h,–,–
